Measurements taken from patent publication US11352360B2, “TGF-beta inhibitors” (Rigel Pharmaceuticals, Inc., priority 2015, dated 2022).

Key:
[1] = system: GDF8 signaling (p-SMAD-3 Ser423/425); assay: AlphaScreen SureFire SMAD3 (p-Ser423/425) assay, GDF8-stimulated; format: cell-based; settings: inhibition of GDF8 signaling, pSMAD, MPC11; read-out: GDF8 (GDF pSMAD (MPC11))
[2] = system: TGF-β signaling (p-SMAD-3 Ser423/425); assay: AlphaScreen SureFire SMAD3 (p-Ser423/425) assay, TGF-β-stimulated; format: cell-based; settings: inhibition of TGF-β signaling, pSMAD, MPC-11

COc1ccc(-c2nc(N)sc2-c2ccc3[nH]ncc3c2)cc1 [Compound 157, 5-(1H-indazol-5-yl)-4-(4-methoxyphenyl)thiazol-2-amine] was tested, and the IC50 [1] was 25.6 nM and the IC50 [2] was 160 nM.
